Values of other authors as cited in US9730930B2, “Treatment for vitiligo” (Rigel Pharmaceuticals, Inc., priority 2012, dated 2017).

System: other cytokine (IL-1β and TNFα) signaling

C#CCOc1ccc(Nc2nc(Nc3ccc(C)c(S(N)(=O)=O)c3)ncc2F)cc1 [Compound I, N2-(3-aminosulfonyl-4-methylphenyl)-5-fluoro-N4-[4-(prop-2-ynyloxy)phenyl]-2,4-pyrimidinediamine]
activity on other cytokine (IL-1β and TNFα) signaling: little or no activity
